From US20260335293A1, “USE OF NOVEL COMPOUND FOR TREATING INTRACTABLE DISEASES” (YJ CERAPEUTICS INC., priority 2023, published 2026)

How the values were obtained:
Assay type in all cases: in vivo, Sprague-Dawley rats
[1] = test system: inflammatory factors (IL-6, iNOS, COX-2, IL-1β, TNF-α, MIP-1α, MIP-1β, MIP-2α, Gro-α, and MCP-1); assay: Inflammatory factor expression in spinal cord of SNI model, RT-PCR and Western blot; details: ipsilateral L4-5 spinal cord
Procedure: (§1) To be used as a peripheral nerve injury animal model, a sciatic nerve injury (SNI) model was prepared (FIG. 1C). Specifically, 200 to 220 g of male adult Sprague-Dawley rats were anesthetized by intraperitoneal injection of chloral hydrate (500 mg/kg), and then three terminal branches (tibial, common peroneal, and sural nerves) of the right sciatic nerve were approached, and the tibia nerve and the peroneal nerve were tightly ligated with 4-0 silk, and neurectomy was performed at a distal 3 mm position of the ligation site. At this time, a Sham group was a group that exposed only the sciatic nerve without damage.
It was known that when neuropathic pain occurred, the activation of microglia and astrocytes expressed inflammatory factors including cytokines and chemokines to cause excessive excitation of surrounding neurons. Therefore, in order to confirm changes in inflammatory factor expression by YJ102 administration in the SNI animal model 4 weeks after nerve injury, RNA and protein were extracted from L4-5 spinal cord tissue and RT-PCR and Western blot analysis were performed. Specifically, for RT-PCR analysis, RNA was isolated from spinal cord tissue sections using a TRIZOL Reagent (Invitrogen) according to a manual, and 20 μl of the total mixture was prepared by using 1 μg of total RNA, and cDNA was synthesized using MMLV reverse transcriptase (Invitrogen). […]

[2] = test system: urinary disturbances caused by spinal cord injury (bladder function); assay: Urinary function (residual urine volume, UBFS, bladder size and weight) in SCI model; details: 5 mg/kg i.p.
Procedure: To be used as a central nerve injury animal model, a traumatic spinal cord injury (SCI) model was prepared (FIG. 1A). Specifically, 230 to 250 g of male adult Sprague-Dawley rats were anesthetized by intraperitoneal injection of chloral hydrate (500 mg/kg), and then the back and neck regions were shaved, and the spinal cord under the back and neck regions was exposed without damaging the dura mater, and a laminectomy was performed at T9 to T10 levels. To stabilize the spine, the spinous processes of T8 and T11 were fixed, and the spine was damaged by free-falling a 10 g weight from a height of 25 mm using an NYU impactor onto the back surface of the exposed spinal cord and then the rats were left in a temperature and humidity-controlled chamber overnight while covering the muscles and skin. After surgery, the rats were subcutaneously injected with a supplement solution (5 ml, lactated ringer) and injected with antibiotics (gentamicin, 5 mg/kg, intramuscular injection) once daily for 5 days. The body weight, remaining food, and the weight of water were confirmed and recorded for all animals, and the bladder was emptied twice daily by passive bladder massage until reflex micturition was established. At this time, a Sham group was a group that was subjected to only laminectomy without damage.
In order to confirm the effect of YJ102 (Chemical Formula 1), a compound of the present disclosure, on urinary disturbances caused by spinal cord injury, immediately after preparing the traumatic spinal cord injury (SCI) model (FIG. 1A) prepared in Example 1 above, YJ102 was dissolved in DMSO, methyl pyrrolidinone, and water (1:1.5:1) and administered intraperitoneally at 5 mg/kg, and then intraperitoneally administered at 24-hour intervals for 7 days from the next day. Thereafter, the effect of improving bladder functions was analyzed through a residual urine volume test and a urinary bladder function score (UBFS). […] Specifically, in order to determine the amount of urine remaining in the bladder after spinal cord injury, bladder extrusion was performed twice a day by applying pressure to the central bottom portion of the lower abdomen using the index and middle fingers to empty the bladder, and the expelled urine was collected in a catheter and its volume was recorded. In addition, the UBFS was assessed daily using a 0-4 point UBFS (0=total loss of function (manual bladder extrusion 3 times a day, bloody urine), 1=partial restoration of UBF (manual extrusion 2 times a day, bloody urine), 2=partial restoration of UBF (partial/complete release of sphincter spasm, manual extrusion once a day, persistently bloody urine), 3=high restoration (manual extrusion once a day, no bloody urine), and 4=normal UBF) as in the reference (Zeng et al., Spinal Cord (2017) 55:834-839).

[3] = test system: microglia (OX-42); assay: Microglial activation in spinal cord of SNI model, OX-42 staining; details: spinal cord L4-L5, 4 weeks after nerve injury
Procedure: as §1
To analyze the activation of microglia in the spinal cord, which were known to play an important role in the induction/persistence of neuropathic pain, 4 weeks after nerve injury in the SNI animal model, the spinal cord of 4 and 5 lumbar vertebrae was stained with OX-42 to confirm changes in cell shape and intensity. […] The supernatant was transferred to a new microcentrifuge, the protein concentration was measured using a BCA kit, and samples for Western blot were prepared by adding a 1× sample buffer and boiling for 5 minutes. […]

CCc1ccc(N(C(=O)COC)c2nc3cc(Cl)ccc3o2)cc1 [YJ102]
significantly reduced: expression of inflammatory factors ([1]; RT-PCR) | expression of inflammatory factors ([1]; Western blot) | bladder size [2] | bladder weight [2] | residual urine volume ([2]; vs Veh, from the first day of administration) | microglia activation changes (OX-42 intensity) [3]
significantly increased: bladder function restoration analysis using the UBFS (printed as residual urine volume) ([2]; vs Vehicle, day 3 and day 7 after SCI)
